Laboratory results published in the supplement of paper PMC7108870.

What was measured:
HEK293sieSTAT3(Y640F) [1] = test: drug sensitivity score (DSS), cytotoxicity CellTox Green (DSS (dimensionless)); higher = more cytotoxic; extreme values may be limits of the assay; details: 72 h; STAT3 variant: Y640F (constitutively active)
Outline: (§1)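 Compounds were acoustically pre-plated in 384-well plates at 5 concentrations spaced by 10-fold dilutions, and HEK293 cells overexpressing wild-type or mutant STAT3 and carrying a STAT3-dependent luciferase reporter were added at 100,000 cells/ml in 20 μl. After 72 hours at 37°C and 5% CO2, the plates were read on a PHERAstar FS for CellTox Green fluorescence (485/520 nm) and then CellTiter-Glo luminescence. A drug sensitivity score derived from dose-response curve area was calculated in Breeze from values normalised to negative and positive control wells.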

HEK293sieSTAT3(wt) [2] = test: as above; details: 72 h; STAT3 variant: wild type
Outline: as §1

HEK293sieSTAT3(Y640F) [3] = test: drug sensitivity score (DSS), viability CellTiter-Glo (DSS (dimensionless)); higher = more growth inhibition; extreme values may be limits of the assay; details: 72 h; STAT3 variant: Y640F (constitutively active)
Outline: as §1

HEK293sieSTAT3(wt) [4] = test: as above; details: 72 h; STAT3 variant: wild type
Outline: as §1

Question: Which results are given for `NS(=O)(=O)OC[C@@H]1C[C@@H](n2ccc3c(N[C@H]4CCc5ccccc54)ncnc32)C[C@@H]1O` [Pevonedistat] (top concentration tested 10000 nM)?
Answer: drug sensitivity score (HEK293sieSTAT3(Y640F) [1]): 3.23; drug sensitivity score (HEK293sieSTAT3(wt) [2]): 7.13; drug sensitivity score (HEK293sieSTAT3(Y640F) [3]): 22.3; drug sensitivity score (HEK293sieSTAT3(wt) [4]): 23.6

Question: What does the source list for `FC(F)(F)c1ccc(CNc2ccc(Cc3c[nH]c4ncc(Cl)cc34)cn2)cn1` [Pexidartinib] (top concentration tested 10000 nM)?
Answer: drug sensitivity score (HEK293sieSTAT3(Y640F) [1]): 0; drug sensitivity score (HEK293sieSTAT3(wt) [2]): 0; drug sensitivity score (HEK293sieSTAT3(Y640F) [3]): 3.45; drug sensitivity score (HEK293sieSTAT3(wt) [4]): 2.35

Question: What does the source list for `CS(=O)(=O)N1CCN(Cc2cc3nc(-c4cccc5[nH]ncc45)nc(N4CCOCC4)c3s2)CC1` [Pictilisib] (top concentration tested 10000 nM)?
Answer: drug sensitivity score (HEK293sieSTAT3(Y640F) [1]): 1.36; drug sensitivity score (HEK293sieSTAT3(wt) [2]): 7.57; drug sensitivity score (HEK293sieSTAT3(Y640F) [3]): 12.7; drug sensitivity score (HEK293sieSTAT3(wt) [4]): 15.7

Question: For `COc1ccc(Cl)c(Nc2nc3ccccc3nc2NS(=O)(=O)c2cccc(NC(=O)C(C)(C)N)c2)c1` [Pilaralisib] (top concentration tested 2500 nM), which drug sensitivity score (HEK293sieSTAT3(Y640F) [1]) is on record?
Answer: The drug sensitivity score was 0.

Question: And the drug sensitivity score (HEK293sieSTAT3(wt) [2])?
Answer: The drug sensitivity score was 0.

Question: What about the drug sensitivity score (HEK293sieSTAT3(Y640F) [3]) of the same compound?
Answer: Its drug sensitivity score is 6.22.

Question: What about the drug sensitivity score (HEK293sieSTAT3(wt) [4]) of the same compound?
Answer: The drug sensitivity score was 3.92.

Question: How did the drug sensitivity score (HEK293sieSTAT3(Y640F) [1]) turn out when `CC[C@@H]1C(=O)OC[C@@H]1Cc1cncn1C` [Pilocarpine] (top concentration tested 40000 nM) was run?
Answer: Its drug sensitivity score is 0.

Question: What about the drug sensitivity score (HEK293sieSTAT3(wt) [2]) of the same compound?
Answer: The drug sensitivity score was 0.

Question: What about the drug sensitivity score (HEK293sieSTAT3(Y640F) [3]) of the same compound?
Answer: Its drug sensitivity score is 0.59.

Question: And the drug sensitivity score (HEK293sieSTAT3(wt) [4])?
Answer: Its drug sensitivity score is 1.32.

Question: For `O=C(NC[C@H](O)CO)c1ccncc1Nc1ccc(I)cc1F` [Pimasertib] (top concentration tested 10000 nM), which drug sensitivity score (HEK293sieSTAT3(Y640F) [1]) is on record?
Answer: The drug sensitivity score was 0.

Question: What about the drug sensitivity score (HEK293sieSTAT3(wt) [2]) of the same compound?
Answer: The drug sensitivity score was 0.

Question: What about the drug sensitivity score (HEK293sieSTAT3(Y640F) [3]) of the same compound?
Answer: The drug sensitivity score was 0.57.

Question: What about the drug sensitivity score (HEK293sieSTAT3(wt) [4]) of the same compound?
Answer: Its drug sensitivity score is 0.

Question: `CC(C)N(C[C@H]1O[C@@H](n2cnc3c(N)ncnc32)[C@H](O)[C@@H]1O)[C@H]1C[C@@H](CCc2nc3cc(C(C)(C)C)ccc3[nH]2)C1` [Pinometostat] (top concentration tested 1000 nM) was tested. Which drug sensitivity score (HEK293sieSTAT3(Y640F) [1]) did it give?
Answer: Its drug sensitivity score is 0.46.

Question: And the drug sensitivity score (HEK293sieSTAT3(wt) [2])?
Answer: The drug sensitivity score was 0.

Question: What about the drug sensitivity score (HEK293sieSTAT3(Y640F) [3]) of the same compound?
Answer: The drug sensitivity score was 0.69.

Question: And the drug sensitivity score (HEK293sieSTAT3(wt) [4])?
Answer: Its drug sensitivity score is 0.

Question: What does the source list for `O=C(CCBr)N1CCN(C(=O)CCBr)CC1` [Pipobroman] (top concentration tested 10000 nM)?
Answer: drug sensitivity score (HEK293sieSTAT3(Y640F) [1]): 0; drug sensitivity score (HEK293sieSTAT3(wt) [2]): 0; drug sensitivity score (HEK293sieSTAT3(Y640F) [3]): 6.86; drug sensitivity score (HEK293sieSTAT3(wt) [4]): 1.43

Question: With `NCCNc1ccc(NCCN)c2c1C(=O)c1ccncc1C2=O` [Pixantrone] (top concentration tested 10000 nM) as the compound, how does the drug sensitivity score (HEK293sieSTAT3(Y640F) [1]) read?
Answer: Its drug sensitivity score is 0.

Question: What about the drug sensitivity score (HEK293sieSTAT3(wt) [2]) of the same compound?
Answer: Its drug sensitivity score is 0.

Question: What about the drug sensitivity score (HEK293sieSTAT3(Y640F) [3]) of the same compound?
Answer: Its drug sensitivity score is 1.82.

Question: What about the drug sensitivity score (HEK293sieSTAT3(wt) [4]) of the same compound?
Answer: The drug sensitivity score was 0.

Question: How did the drug sensitivity score (HEK293sieSTAT3(Y640F) [1]) turn out when `c1cc(CN2CCCNCCNCCCNCC2)ccc1CN1CCCNCCNCCCNCC1` [Plerixafor] (top concentration tested 10000 nM) was run?
Answer: Its drug sensitivity score is 0.

Question: What about the drug sensitivity score (HEK293sieSTAT3(wt) [2]) of the same compound?
Answer: Its drug sensitivity score is 0.25.

Question: And the drug sensitivity score (HEK293sieSTAT3(Y640F) [3])?
Answer: Its drug sensitivity score is 0.

Question: And the drug sensitivity score (HEK293sieSTAT3(wt) [4])?
Answer: The drug sensitivity score was 0.

Question: `CO[C@H](C(=O)[C@@H](O)[C@@H](C)O)[C@@H]1Cc2cc3cc(O[C@H]4C[C@@H](O[C@@H]5C[C@@H](O)[C@H](O)[C@@H](C)O5)[C@H](O)[C@@H](C)O4)c(C)c(O)c3c(O)c2C(=O)[C@H]1O[C@H]1C[C@@H](O[C@@H]2C[C@@H](O)[C@@H](O[C@@H]3C[C@](C)(O)[C@H](O)[C@@H](C)O3)[C@@H](C)O2)[C@H](O)[C@@H](C)O1` [Plicamycin] (top concentration tested 10000 nM) was tested. Which drug sensitivity score (HEK293sieSTAT3(Y640F) [1]) did it give?
Answer: Its drug sensitivity score is 6.46.

Question: And the drug sensitivity score (HEK293sieSTAT3(wt) [2])?
Answer: The drug sensitivity score was 7.29.

Question: What about the drug sensitivity score (HEK293sieSTAT3(Y640F) [3]) of the same compound?
Answer: Its drug sensitivity score is 17.8.

Question: And the drug sensitivity score (HEK293sieSTAT3(wt) [4])?
Answer: The drug sensitivity score was 18.7.

Question: How did the drug sensitivity score (HEK293sieSTAT3(Y640F) [1]) turn out when `Nc1cccc2c1C(=O)N(C1CCC(=O)NC1=O)C2=O` (centres undefined) [Pomalidomide] (top concentration tested 10000 nM) was run?
Answer: Its drug sensitivity score is 0.

Question: What about the drug sensitivity score (HEK293sieSTAT3(wt) [2]) of the same compound?
Answer: The drug sensitivity score was 0.

Question: And the drug sensitivity score (HEK293sieSTAT3(Y640F) [3])?
Answer: The drug sensitivity score was 0.

Question: And the drug sensitivity score (HEK293sieSTAT3(wt) [4])?
Answer: Its drug sensitivity score is 0.

Question: Which results are given for `C=CC(=O)N1CCC(Oc2cc3c(Nc4ccc(Cl)c(Cl)c4F)ncnc3cc2OC)CC1` [Poziotinib] (top concentration tested 1000 nM)?
Answer: drug sensitivity score (HEK293sieSTAT3(Y640F) [1]): 0; drug sensitivity score (HEK293sieSTAT3(wt) [2]): 0; drug sensitivity score (HEK293sieSTAT3(Y640F) [3]): 1.53; drug sensitivity score (HEK293sieSTAT3(wt) [4]): 0

Question: `CCCCc1nc2cc(/C=C/C(=O)NO)ccc2n1CCN(CC)CC` [Pracinostat] (top concentration tested 10000 nM) was tested. Which drug sensitivity score (HEK293sieSTAT3(Y640F) [1]) did it give?
Answer: The drug sensitivity score was 9.85.

Question: And the drug sensitivity score (HEK293sieSTAT3(wt) [2])?
Answer: The drug sensitivity score was 14.5.

Question: And the drug sensitivity score (HEK293sieSTAT3(Y640F) [3])?
Answer: Its drug sensitivity score is 20.7.

Question: What about the drug sensitivity score (HEK293sieSTAT3(wt) [4]) of the same compound?
Answer: The drug sensitivity score was 22.

Question: Which drug sensitivity score (HEK293sieSTAT3(Y640F) [1]) does the source give for `CC[C@H](C)C(=O)O[C@H]1C[C@H](O)C=C2C=C[C@H](C)[C@H](CC[C@@H](O)C[C@@H](O)CC(=O)O)[C@H]21` [Pravastatin] (top concentration tested 10000 nM) here?
Answer: Its drug sensitivity score is 0.36.

Question: What about the drug sensitivity score (HEK293sieSTAT3(wt) [2]) of the same compound?
Answer: Its drug sensitivity score is 0.

Question: What about the drug sensitivity score (HEK293sieSTAT3(Y640F) [3]) of the same compound?
Answer: Its drug sensitivity score is 0.

Question: What about the drug sensitivity score (HEK293sieSTAT3(wt) [4]) of the same compound?
Answer: The drug sensitivity score was 2.37.

Question: Which results are given for `C[C@]12C=CC(=O)C=C1CC[C@@H]1[C@@H]2[C@@H](O)C[C@@]2(C)[C@H]1CC[C@]2(O)C(=O)CO` [Prednisolone] (top concentration tested 10000 nM)?
Answer: drug sensitivity score (HEK293sieSTAT3(Y640F) [1]): 0; drug sensitivity score (HEK293sieSTAT3(wt) [2]): 0; drug sensitivity score (HEK293sieSTAT3(Y640F) [3]): 0; drug sensitivity score (HEK293sieSTAT3(wt) [4]): 0

Question: What does the source list for `C[C@]12C=CC(=O)C=C1CC[C@@H]1[C@@H]2C(=O)C[C@@]2(C)[C@H]1CC[C@]2(O)C(=O)CO` [Prednisone] (top concentration tested 10000 nM)?
Answer: drug sensitivity score (HEK293sieSTAT3(Y640F) [1]): 0.59; drug sensitivity score (HEK293sieSTAT3(wt) [2]): 0; drug sensitivity score (HEK293sieSTAT3(Y640F) [3]): 0.65; drug sensitivity score (HEK293sieSTAT3(wt) [4]): 3.96

Question: For `COc1cccc(OCCCN)c1-c1cc(Nc2cnc(C#N)cn2)n[nH]1` [Prexasertib] (top concentration tested 10000 nM), which drug sensitivity score (HEK293sieSTAT3(Y640F) [1]) is on record?
Answer: Its drug sensitivity score is 15.4.

Question: What about the drug sensitivity score (HEK293sieSTAT3(wt) [2]) of the same compound?
Answer: Its drug sensitivity score is 12.4.

Question: What about the drug sensitivity score (HEK293sieSTAT3(Y640F) [3]) of the same compound?
Answer: Its drug sensitivity score is 42.1.

Question: What about the drug sensitivity score (HEK293sieSTAT3(wt) [4]) of the same compound?
Answer: Its drug sensitivity score is 37.

Question: Which results are given for `CNNCc1ccc(C(=O)NC(C)C)cc1` [Procarbazine] (top concentration tested 10000 nM)?
Answer: drug sensitivity score (HEK293sieSTAT3(Y640F) [1]): 0; drug sensitivity score (HEK293sieSTAT3(wt) [2]): 0; drug sensitivity score (HEK293sieSTAT3(Y640F) [3]): 0; drug sensitivity score (HEK293sieSTAT3(wt) [4]): 0

Question: How did the drug sensitivity score (HEK293sieSTAT3(Y640F) [1]) turn out when `Cc1cc(-c2ncc(-c3cccnc3)cc2/C=C/c2ccccc2)cnc1-c1cccnc1` [Pyridoclax] (top concentration tested 25000 nM) was run?
Answer: The drug sensitivity score was 1.38.

Question: And the drug sensitivity score (HEK293sieSTAT3(wt) [2])?
Answer: Its drug sensitivity score is 5.06.

Question: What about the drug sensitivity score (HEK293sieSTAT3(Y640F) [3]) of the same compound?
Answer: Its drug sensitivity score is 12.2.

Question: What about the drug sensitivity score (HEK293sieSTAT3(wt) [4]) of the same compound?
Answer: The drug sensitivity score was 10.1.

Question: How did the drug sensitivity score (HEK293sieSTAT3(Y640F) [1]) turn out when `Cn1cc(CNCC2CCN(c3ncc(C(=O)NO)cn3)CC2)c2ccccc21` [Quisinostat] (top concentration tested 1000 nM) was run?
Answer: Its drug sensitivity score is 6.14.

Question: And the drug sensitivity score (HEK293sieSTAT3(wt) [2])?
Answer: The drug sensitivity score was 7.75.

Question: What about the drug sensitivity score (HEK293sieSTAT3(Y640F) [3]) of the same compound?
Answer: The drug sensitivity score was 16.3.

Question: What about the drug sensitivity score (HEK293sieSTAT3(wt) [4]) of the same compound?
Answer: Its drug sensitivity score is 17.9.
